≈ marks a conversion by molar mass, not a printed value. Like-named read-outs stand apart in the source and are kept apart here.
What was measured:
[1] = tested on: asexual erythrocytic stages of transgenic NF54-luc P. falciparum; test: Luciferase-based viability screening for antiplasmodial activity; assay type: cell-based, Plasmodium falciparum; details: for % inhibition ± SD, PfNF54-Luc at 3 µM: 3 µM test compound, luciferase readout; for IC50: read-out: IC50 [µM], PfNF54-Luc
Description: For the luciferase-based viability assays, asexual erythrocytic stages of transgenic NF54-luc P. falciparum were used. These parasites constitutively express high luciferase levels. The parasites were cultured as described previously. Parasite cultures with parasitaemia of 0.5–1% were dispensed in triplicate into white 96-well flat-bottom plates (each well contains 250 µL) (NUNC, Roskilde, Denmark) and incubated in the presence of 3 µM test compounds for 48 h (37 °C, 90% N2, 5% CO2, and 5% O2). 0.01% DMSO was included in the untreated infected RBC cultures as negative control, since the compounds stock initially was diluted in DMSO and each treatment well also contained 0.01% DMSO. Subsequently, 100 µL RPMI1640 media was removed from each well and a 100 µL volume of the Bright-Glo® substrate solution was added to each well. The resultant cleavage product of the reaction, light, was measured using a […] luminometer (Thermo), to ascertain viable parasites. Untreated cultures were used as negative controls and to calculate the inhibition rate (0% inhibition of parasite growth). Experiments were performed in triplicate and were repeated as a whole at least twice. Blasticidin (Sigma-Aldrich, St. Louis, MO, USA), used for selection of transfected parasites, was included as a positive control on each plate and gave > 90% inhibition of parasite growth at concentration 2 µg/mL. […] For active compounds IC50 values were determined from dose–response curves. Calculation of parasite growth inhibition, of the IC50 values and statistical analysis were carried out using GraphPad Prism Version 6.0b (GraphPad Software, Inc. San Diego, CA).

[2] = target: HsGSK-3 (Homo sapiens, UniProt P49841); test: Kinase-Glo Plus assay for inhibition of HsGSK-3; assay type: biochemical; details: 6 µM ATP; mean of three determinations, range in brackets
Description: Kinase reaction mix was transferred to a solid white 384 well plate (NUNC, Thermo Scientific) and kinase reaction was stopped by adding 5 μL RT Kinase-Glo reagent. After 10 min luminescence was measured in an EnVision multilabel plate reader (Perkin Elmer, integration time 0.5 s/well). […] All samples were normalized to a negative control (reaction without kinase). Data points were plotted into Graphpad Prism, normalized to a DMSO control and IC50 values were calculated using nonlinear regression.

[3] = target: T1, PfGSK-3 (Plasmodium falciparum, UniProt O77344); test: biochemical; assay type: biochemical; details: for IC50: 6 µM ATP, mean of three determinations, range in brackets, read-out: IC50 [µM], PfGSK-3 (Kinase Glo Plus)
T1 construct: 6xHis; made in house; host or cells: Escherichia coli C41
T1 sequence (O77344 1-440): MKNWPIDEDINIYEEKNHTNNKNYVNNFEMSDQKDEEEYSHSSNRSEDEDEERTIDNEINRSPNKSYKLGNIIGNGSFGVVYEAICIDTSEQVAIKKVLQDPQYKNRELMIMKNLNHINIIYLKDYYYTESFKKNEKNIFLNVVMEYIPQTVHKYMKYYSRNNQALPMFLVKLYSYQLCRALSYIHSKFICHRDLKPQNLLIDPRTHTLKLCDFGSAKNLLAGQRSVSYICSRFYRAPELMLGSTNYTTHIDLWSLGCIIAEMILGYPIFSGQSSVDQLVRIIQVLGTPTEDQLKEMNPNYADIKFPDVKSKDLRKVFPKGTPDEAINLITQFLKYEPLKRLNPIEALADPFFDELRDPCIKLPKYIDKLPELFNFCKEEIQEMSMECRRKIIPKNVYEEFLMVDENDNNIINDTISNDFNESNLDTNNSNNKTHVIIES
Description: PfGSK-3 was cloned into pOPIN F expression vector [41] using ligation independent cloning (InFusion, Takara Clontech). Expression vector was transformed into Escherichia coli C41 and expression of recombinant PfGSK3-6xHis was induced by incubation with 1 mM IPTG at 16 °C overnight.
Kinase activity was measured using Kinase-Glo Plus Luminescent Kinase Assay (Promega). 20 ng recombinant GSK-3 were incubated for 30 min at 30 °C in the presence of 12 μM GS-1 peptide substrate ([…]pSEDEEE, pS stands for phosphorylated serine, Biaffin GmbH & Co KG/proteinkinase.de) and 6 μM ATP (ultra pure, Promega) in a total volume of 5 μL kinase reaction buffer (40 mM Tris/HCl pH 7.5; 20 mM MgCl2; 0.1 mg/mL BSA). Kinase reaction mix was transferred to a solid white 384 well plate (NUNC, Thermo Scientific) and kinase reaction was stopped by adding 5 μL RT Kinase-Glo reagent. After 10 min luminescence was measured in an EnVision multilabel plate reader (Perkin Elmer, integration time 0.5 s/well). […] All samples were normalized to a negative control (reaction without kinase). Data points were plotted into Graphpad Prism, normalized to a DMSO control and IC50 values were calculated using nonlinear regression.

[4] = tested on: HEK293T cells; test: Cytotoxicity assay on HEK293 cells (PrestoBlue viability); assay type: cell-based, human
Description: HEK293T cells were seeded into a solid black flat bottom 96 well plate (2.5 × 10^4 cells/well) in 200 μL Dulbecco Modified Eagle Medium (DMEM) supplemented with 10% fetal bovine serum and 1% Pen/Strep (final concentration of 100 U/mL Penicillin and 100 μg/mL Streptomycin). Cells were incubated at 37 °C under 5% CO2. After 18 h the supernatant was removed and fresh DMEM containing serial dilutions of compounds was added. Compounds were solubilized in DMSO (final DMSO concentration in HEK293T culture was 0.5%.) Wells containing 0.5% DMSO served as a negative control. Plates were incubated for further 48 h at 37 °C under 5% CO2. To monitor cell viability the supernatant was removed and cells were incubated with 200 μL 10% PrestoBlue (Invitrogen) in PBS at 37 °C. After 30 min fluorescence (λex = 560 nm, λem = 590 nm) was measured in an EnVision multilable plate reader (Perkin Elmer, integration time 0.1 s/well). Data points were plotted into Graphpad Prism, normalized to the DMSO control and IC50 values were calculated using nonlinear regression.

[5] = tested on: asexual erythrocytic stages of transgenic NF54-luc P. falciparum; design: method as in PMID 23214499; details: prototype compound 1; read-out: IC50 [µM], PfNF54-Luc; cited from earlier work
[6] = Kinetic solubility by laser nephelometry; assay type: physicochemical; details: kinetic from dmso stock, aqueous phosphate buffer pH 7.4, 1% DMSO, 25 °C, mean ± standard deviation, read-out: S0 pH 7.4, exp (kinetic solubility)
Description: Kinetic solubility indicates the solubility of the most rapidly precipitating form. Kinetic solubilities of 1 and 4h were determined by laser nephelometry using the […] nephelometer (BMG LabTech, Ortenberg, Germany) and F-bottom transparent 96-well plates. The instrument uses red laser light (635 nm, 80% intensity), which passes through the 96-well plate and which is scattered by turbid suspensions. Each compound was measured six times at 25 °C by preparing three independent stock solutions in concentrations of 5 to 10 mM in DMSO. From each stock solution two independent dilution series were prepared. Based on preliminary experiments, dilution concentrations were chosen such that at least five to six concentrations below and above the expected point of precipitation were recorded. To the 96-well plate containing 198 μL aqueous phosphate buffer at pH 7.4, 2 μL of each dilution sample in DMSO was added and shaken for 10 s. at 700 rpm (double orbital). […] The pH was adjusted by adding sulfuric acid. First, the plates were scanned without content to quantify the background, which was later subtracted from the obtained values of each individual well. As blank, 2 μL of neat DMSO was added to the phosphate buffer. Close to the point of precipitation, particle concentration can be assumed to be proportional to the intensity of scattered light. […]

[7] = from dose-response curves, 48 h

Sequence of HsGSK-3 (P49841 whole entry): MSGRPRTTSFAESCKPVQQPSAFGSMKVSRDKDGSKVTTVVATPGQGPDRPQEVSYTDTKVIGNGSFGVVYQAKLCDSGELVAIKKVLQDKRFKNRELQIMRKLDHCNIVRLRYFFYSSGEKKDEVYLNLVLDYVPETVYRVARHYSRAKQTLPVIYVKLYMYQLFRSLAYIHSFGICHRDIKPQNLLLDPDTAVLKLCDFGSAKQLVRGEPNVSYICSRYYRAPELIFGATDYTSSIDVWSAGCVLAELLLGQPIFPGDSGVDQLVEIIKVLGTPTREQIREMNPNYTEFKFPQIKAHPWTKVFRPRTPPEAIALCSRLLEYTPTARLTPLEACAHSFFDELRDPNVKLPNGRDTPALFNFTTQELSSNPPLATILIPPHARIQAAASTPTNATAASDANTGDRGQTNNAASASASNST

SMILES | % inhibition ± SD, PfNF54-Luc at 3 µM ([1]; 48 h) [%] | IC50 [1, 7] [µM] | other results
N#Cc1c(N)nc2sc(C(=O)c3cccc(Cl)c3)c(N)c2c1-c1ccc(Cl)cc1Cl [2a] | 25.7 ± 3.5 | 6.2 | –
N#Cc1c(N)nc2sc(C(=O)c3cccc(Cl)c3)c(N)c2c1-c1ccc(F)cc1Cl [2b] | 28.1 ± 3.3 | 6.1 | –
Cc1ccc(-c2c(C#N)c(N)nc3sc(C(=O)c4cccc(Cl)c4)c(N)c23)c(Cl)c1 [2d] | 12.4 ± 2.4 | – | –
N#Cc1c(N)nc2sc(C(=O)c3cccc(Cl)c3)c(N)c2c1-c1ccc(O)cc1Cl [2e] | 0.2 ± 2.5 | – | –
COc1ccc(-c2c(C#N)c(N)nc3sc(C(=O)c4cccc(Cl)c4)c(N)c23)c(Cl)c1 [3a] | 33.2 ± 3.2 | 12.2 | –
CCOc1ccc(-c2c(C#N)c(N)nc3sc(C(=O)c4cccc(Cl)c4)c(N)c23)c(Cl)c1 [3b] | 14.5 ± 1.3 | – | –
N#Cc1c(N)nc2sc(C(=O)c3cccc(Cl)c3)c(N)c2c1-c1ccc(OCc2ccccc2)cc1Cl [3c] | 12.8 ± 4.9 | – | –
N#Cc1c(N)nc2sc(C(=O)c3cccc(Cl)c3)c(N)c2c1-c1ccc(OCCO)cc1Cl [3d] | 25.6 ± 3.3 | 20 | –
N#Cc1c(N)nc2sc(C(=O)c3cccc(Cl)c3)c(N)c2c1-c1ccc(OCC(O)CO)cc1Cl (centres unmarked) [3f] | 14.7 ± 1.8 | – | –
N#Cc1c(N)nc2sc(C(=O)c3cccc(Cl)c3)c(N)c2c1-c1ccc(OCC(=O)O)cc1Cl [3g] | 31.3 ± 1.1 | – | –
CN(C)c1ccc(-c2c(C#N)c(N)nc3sc(C(=O)c4cccc(Cl)c4)c(N)c23)c(Cl)c1 [4a] | 29.9 ± 5.6 | 5.7 | –
N#Cc1c(N)nc2sc(C(=O)c3cccc(Cl)c3)c(N)c2c1-c1ccc(N2CCCC2)cc1Cl [4c] | 33.0 ± 2.4 | – | –
N#Cc1c(N)nc2sc(C(=O)c3cccc(Cl)c3)c(N)c2c1-c1ccc(N2CCCCC2)cc1Cl [4d] | 39.1 ± 1.1 | 5 | –
N#Cc1c(N)nc2sc(C(=O)c3cccc(Cl)c3)c(N)c2c1-c1ccc(N2CCOCC2)cc1Cl [4e] | 20.2 ± 4.8 | – | –
CN(CCNC(=O)OC(C)(C)C)c1ccc(-c2c(C#N)c(N)nc3sc(C(=O)c4cccc(Cl)c4)c(N)c23)c(Cl)c1 [4f] | 67.1 ± 2.7 | 2.5 | –
CC(C)(C)OC(=O)N1CCN(c2ccc(-c3c(C#N)c(N)nc4sc(C(=O)c5cccc(Cl)c5)c(N)c34)c(Cl)c2)CC1 [4g] | 42.1 ± 2.9 | 3.8 | –
CN(CCN)c1ccc(-c2c(C#N)c(N)nc3sc(C(=O)c4cccc(Cl)c4)c(N)c23)c(Cl)c1.Cl [4i] | 8.1 ± 3.3 | – | –
Cl.N#Cc1c(N)nc2sc(C(=O)c3cccc(Cl)c3)c(N)c2c1-c1ccc(N2CCNCC2)cc1Cl [4j] | 75.7 ± 1.5 | 1.5 | –
CCN(CC)c1ccc(-c2c(C#N)c(N)nc3sc(C(=O)c4cccc(Cl)c4)c(N)c23)c(Cl)c1 [(+)4b] | – | – | inhibition at 3 µM ([1]; Plasmodium falciparum, NF54, 48 h, read-out: % inhibition ± SD, PfNF54-Luc at 3 µM): 73 ± 1.2%; IC50 ([1]; Plasmodium falciparum, NF54, 48 h): 1.1 µM; IC50 [2]: > 100 µM; IC50 [3]: 39.6 µM
CCN(CC)c1ccc(-c2c(C#N)c(N)nc3sc(C(=O)c4cccc(Cl)c4)c(N)c23)c(Cl)c1 [(−)4b] | – | – | IC50 [3]: > 100 µM
CN(CC[C@H](N)CC(=O)N[C@H]1C=C[C@H](n2ccc(N)nc2=O)O[C@@H]1C(=O)O)C(=N)N [BS, Blasticidin, reference compound] | 99.3 ± 0.7 | – | inhibition of parasite growth (positive control) ([1]; 2 µg/mL, 48 h): > 90%
N#Cc1c(N)nc2sc(C(=O)c3cccc(Cl)c3)c(N)c2c1-c1ccccc1Cl [compound 1] | – | – | SI (selectivity index) = IC50 HEK293T/IC50 PfNF54-Luc ([4]; HEK293T versus PfNF54-Luc): 6.4; IC50 ([4]; Homo sapiens, HEK-293T, cell viability, 48 h, mean of six determinations, range in brackets): 35.2 µM; IC50 [5]: 5.5 µM; IC50 [2]: 9.08 µM; IC50 [3]: 0.24 µM; selectivity index plasmodial versus human GSK-3 ([3]; Kinase Glo Plus assay, PfGSK-3 versus HsGSK-3): 38; solubility kinetic at 10 s [6]: 1.5 ± 0.3 µM (≈ 0.659 µg/mL)
